In paper PMC7140114 (Cancers, 2020):
Numbered stars: 1 amine (or outer) side, 2 acyl side, 3 side chain; on linkers, the order of the positions; unused ones are H or OH. Square brackets hold non-standard residues; d marks the D form. Peptide text beside a SMILES is read from it. * marks the point of attachment. Dolaproine = CO[C@@H]([C@@H]1CCCN1)[C@@H](C)C(=O)O; X1 = N[C@@H](CSC1CC(=O)N(CCCCCC(=O)*)C1=O)C(=O)O; Dil = CC[C@H](C)[C@H](NC)[C@@H](CC(=O)O)OC; PABC = O=C(OCc1ccc(N[*:1])cc1)[*:2]; X2 = C[C@@H](N*)[C@@H](O)c1ccccc1; NMeV = CN[C@H](C(=O)O)C(C)C

Assays:
tubulin = experiment: Tubulin polymerization inhibition assay (fluorescence-based kit); format: biochemical; details: tested at 0.1-30 μM; mean of triplicate
Source text: In this study, we used a molecular-level tubulin inhibition assay to rapidly assess the efficacy of ionized conjugates to circumvent the effects of the differences in membrane permeability. […] All of the tested Cys-linker-MMAE conjugates produced concentration-dependent inhibition of tubulin polymerization, providing a basis for developing ADCs with Cys-linker-MMAE as potent payloads.
We used the Tubulin Polymerization Assay Kit (Cat. # BK011P, Cytoskeleton, Inc., Denver, CO, USA) according to the manufacturer’s instructions for this fluorescence-based test. Before this test, the linker-MMAE conjugates were added to an L-cysteine solution (0.3 mmol/L in H2O, 900 μL), and the mixture was incubated for 10 min at room temperature for the conversion to Cys-linker-MMAE conjugates according to previously reported methods.

BT-474 cells = experiment: In vitro cytotoxicity (CellTiter-Glo, 7 days), BT-474; format: cell-based, human; details: BT-474, HER2+++; for IC50: Homo sapiens, 168 h
Experimental: (§1) Human HER2-positive cell lines (BT-474, HCC1954, and NCI-N87) and HER2-negative cell lines (MCF-7 and MDA-MB-468) were purchased from the ATCC. Tumor cells were cultured in Roswell Park Memorial Institute (RPMI)-1640 medium (Cellgro, Manassas, VA, USA) supplemented with 10% fetal bovine serum (Invitrogen, Carlsbad, CA, USA) and GlutaMAX (Invitrogen, Carlsbad, CA, USA). Cells (3.3 × 10^4 cells/well) were added to each well of 384-well plates and incubated at 37 °C overnight, after which 10 μL of compound aliquots were added to the assay plate. […] Then, the plates were removed from the incubator and equilibrated at room temperature for 10 min. The Cell Titer Glo® (CTG, Promega, Madison, WI, USA) reagents were incubated at 37 °C before the experiment. The buffer was equilibrated to room temperature and used to dissolve the substrate. Then, 40 μL of CTG reagent was added to each well for detection (at 1:1 ratio to the culture medium).

HCC1954 cells = experiment: In vitro cytotoxicity (CellTiter-Glo, 7 days), HCC1954; format: cell-based, human; details: HCC1954, HER2+++; for IC50: Homo sapiens, 168 h
Experimental: as §1

NCI-N87 cells = experiment: In vitro cytotoxicity (CellTiter-Glo, 7 days), NCI-N87; format: cell-based, human; details: NCI-N87, HER2+++; for IC50: Homo sapiens, 168 h
Experimental: as §1

MCF-7 cells = experiment: In vitro cytotoxicity (CellTiter-Glo, 7 days), MCF-7; format: cell-based, human; details: MCF-7, HER2−; for IC50: Homo sapiens, MCF7, 168 h
Experimental: as §1

MDA-MB-468 cells = experiment: In vitro cytotoxicity (CellTiter-Glo, 7 days), MDA-MB-468; format: cell-based, human; details: MDA-MB-468, HER2−; for IC50: Homo sapiens, 168 h
Experimental: as §1

cells (cellular level) = details: cited from earlier work
[1] = test system: HER2-positive cell lines (BT-474, HCC1954, and NCI-N87) and HER2-negative cell lines (MCF-7, and MDA-MB-468); experiment: In vitro cytotoxicity, summary over the cell line panel; format: cell-based, human; details: from Table 2 IC50 values
Experimental: as §1

SMILES: CCC(C)C(C(CC(=O)N1CCCC1C(OC)C(C)C(=O)NC(C)C(O)c1ccccc1)OC)N(C)C(=O)C(NC(=O)C(NC)C(C)C)C(C)C (centres unmarked) [MMAE, Monomethyl auristatin E]
- EC50 (tubulin): 1430 nM
- Max. Inhibition (BT-474 cells): 79.09%
- IC50 (BT-474 cells): 0.32 nM
- Max. Inhibition (HCC1954 cells): 97.54%
- IC50 (HCC1954 cells): 0.07 nM
- IC50 (NCI-N87 cells): 0.07 nM
- Max. Inhibition (NCI-N87 cells): 89.37%
- IC50 (MCF-7 cells): 0.29 nM
- Max. Inhibition (MCF-7 cells): 93.14%
- IC50 (MDA-MB-468 cells): 0.17 nM
- IC50 (cells (cellular level)): 0.01 to 1 nM

SMILES: CC[C@H](C)[C@@H]([C@@H](CC(=O)N1CCC[C@H]1[C@H](OC)[C@@H](C)C(=O)N[C@H](C)[C@@H](O)c1ccccc1)OC)N(C)C(=O)[C@@H](NC(=O)[C@H](C(C)C)N(C)C(=O)OCc1ccc(NC(=O)CCCCCN2C(=O)CC(SC[C@H](N)C(=O)O)C2=O)cc1)C(C)C (some centres unmarked) [Cys-15] ({X1-PABC}-[NMeV]V[Dil][Dolaproine]-X2)
- EC50 (tubulin): 2320 nM
- Max. Inhibition (BT-474 cells): 82.62%
- IC50 (BT-474 cells): 6.88 nM
- Max. Inhibition (HCC1954 cells): 98.86%
- IC50 (HCC1954 cells): 2.31 nM
- IC50 (NCI-N87 cells): 8.67 nM
- Max. Inhibition (NCI-N87 cells): 94.86%
- IC50 (MCF-7 cells): 51.2 nM
- Max. Inhibition (MCF-7 cells): 91.13%
- IC50 (MDA-MB-468 cells): 11.1 nM
- Max. Inhibition (MDA-MB-468 cells): 85.75%
- Decrease in activity compared to MMAE in each cell line [1]: 22–177 fold
